The source of these data is PubChem BioAssay AID1259407 (Chemical Carcinogenesis Research Information System (CCRIS), 2018).

The structures appear in SMILES notation. Active and inactive are the calls of the source. The rule behind the calls is not given here.

The subject of the data set is CCRIS mutagenicity, Ames/micronucleus/aberration tests. As to the kind of experiment: CCRIS mutagenicity studies.

Turning to `COc1ccc(N)cc1N`, the mutagenic call (Test System: AMES SALMONELLA TYPHIMURIUM, Strain/Indicator: TA97, Metabolic Activation: HAMSTER, LIVER, S-9, AROCLOR 1254 (10%), Method: PREINCUBATION) is “active; positive”; the mutagenic call (Test System: AMES SALMONELLA TYPHIMURIUM, Strain/Indicator: TA97, Metabolic Activation: NONE, Method: PREINCUBATION) is “inactive; negative”; the mutagenic call (Test System: AMES SALMONELLA TYPHIMURIUM, Strain/Indicator: TA97, Metabolic Activation: RAT, LIVER, S-9, AROCLOR 1254 (4 OR 10%), Method: STANDARD PLATE) is “active; positive”; the mutagenic call (Test System: AMES SALMONELLA TYPHIMURIUM, Strain/Indicator: TA97, Metabolic Activation: RAT, LIVER, S-9, AROCLOR 1254 (10%), Method: PREINCUBATION) was “active; positive”; the mutagenic call (Test System: AMES SALMONELLA TYPHIMURIUM, Strain/Indicator: TA98, Metabolic Activation: HAMSTER, LIVER, S-9, AROCLOR 1254 (10%), Method: PREINCUBATION) was “active; positive”; the mutagenic call (Test System: AMES SALMONELLA TYPHIMURIUM, Strain/Indicator: TA98, Metabolic Activation: NONE, Method: PREINCUBATION) is “active; positive”. Further, the mutagenic call reads like this: (Test System: AMES SALMONELLA TYPHIMURIUM, Strain/Indicator: TA98, Metabolic Activation: RAT, LIVER, S-9, AROCLOR 1254 (10%), Method: PREINCUBATION) “active; positive”; (Test System: AMES SALMONELLA TYPHIMURIUM, Strain/Indicator: TA100, Metabolic Activation: HAMSTER, LIVER, S-9, AROCLOR 1254 (10%), Method: PREINCUBATION) “active; positive”; (Test System: AMES SALMONELLA TYPHIMURIUM, Strain/Indicator: TA100, Metabolic Activation: NONE, Method: PREINCUBATION) “inactive; negative”; (Test System: AMES SALMONELLA TYPHIMURIUM, Strain/Indicator: TA100, Metabolic Activation: RAT, LIVER, S-9, AROCLOR 1254 (10%), Method: PREINCUBATION) “active; positive”; (Test System: AMES SALMONELLA TYPHIMURIUM, Strain/Indicator: TA1535, Metabolic Activation: HAMSTER, LIVER, S-9, AROCLOR 1254 (10%), Method: PREINCUBATION) “inactive; negative”; (Test System: AMES SALMONELLA TYPHIMURIUM, Strain/Indicator: TA1535, Metabolic Activation: NONE, Method: PREINCUBATION) “inactive; negative”. The mutagenic call by setting is: (Test System: AMES SALMONELLA TYPHIMURIUM, Strain/Indicator: TA1535, Metabolic Activation: RAT, LIVER, S-9, AROCLOR 1254 (10%), Method: PREINCUBATION) “inactive; negative”; (Test System: AMES SALMONELLA TYPHIMURIUM, Strain/Indicator: TA1537, Metabolic Activation: RAT, LIVER, S-9, AROCLOR 1254 (4 OR 10%), Method: STANDARD PLATE) “active; positive”; (Test System: AMES SALMONELLA TYPHIMURIUM, Strain/Indicator: TA1538, Metabolic Activation: RAT, LIVER, S-9, AROCLOR 1254 (4 OR 10%), Method: STANDARD PLATE) “active; positive”; (Test System: CHINESE HAMSTER V-79, Strain/Indicator: V-79/6-THIOGUANINE, Metabolic Activation: NONE, Method: SUSPENSION/PLATE) “active; positive”; (Test System: CHINESE HAMSTER V-79, Strain/Indicator: V-79/6-THIOGUANINE, Metabolic Activation: RAT, LIVER, S-9, PHENOBARBITAL AND BETA-NAPHTHOFLAVONE, Method: SUSPENSION/PLATE) “inactive; negative”; (Test System: E. COLI, Strain/Indicator: WP2 UVRA, Metabolic Activation: HAMSTER, LIVER, S-9, AROCLOR 1254, Method: STANDARD PLATE) “inactive; negative”. The mutagenic call was “inactive; negative” (Test System: E. COLI, Strain/Indicator: WP2 UVRA, Metabolic Activation: HAMSTER, LIVER, S-9, Method: STANDARD PLATE); “inactive; negative” (Test System: E. COLI, Strain/Indicator: WP2 UVRA, Metabolic Activation: MOUSE, LIVER, S-9, AROCLOR 1254, Method: STANDARD PLATE); “inactive; negative” (Test System: E. COLI, Strain/Indicator: WP2 UVRA, Metabolic Activation: MOUSE, LIVER, S-9, Method: STANDARD PLATE); “inactive; negative” (Test System: E. COLI, Strain/Indicator: WP2 UVRA, Metabolic Activation: NONE, Method: STANDARD PLATE); “inactive; negative” (Test System: E. COLI, Strain/Indicator: WP2 UVRA, Metabolic Activation: RAT, LIVER, S-9, AROCLOR 1254, Method: STANDARD PLATE); “inactive; negative” (Test System: E. COLI, Strain/Indicator: WP2 UVRA, Metabolic Activation: RAT, LIVER, S-9, Method: STANDARD PLATE). The mutagenic call is, setting by setting: (Test System: MOUSE LYMPHOMA, Strain/Indicator: L5178Y (TK+/TK-), Metabolic Activation: NONE, Method: SUSPENSION/PLATE) “active; positive”; (Test System: MOUSE LYMPHOMA, Strain/Indicator: L5178Y (TK+/TK-), Metabolic Activation: RAT, LIVER, S-9, AROCLOR 1254, Method: SUSPENSION/PLATE) “active; positive”.

For `ClCc1ccncc1`, the mutagenic call is “inactive; negative” (Test System: AMES SALMONELLA TYPHIMURIUM, Strain/Indicator: TA97, Metabolic Activation: NONE, Method: STANDARD PLATE); “inactive; negative” (Test System: AMES SALMONELLA TYPHIMURIUM, Strain/Indicator: TA97, Metabolic Activation: RAT, LIVER, S-9, AROCLOR 1254, Method: STANDARD PLATE); “inactive; negative” (Test System: AMES SALMONELLA TYPHIMURIUM, Strain/Indicator: TA98, Metabolic Activation: NONE, Method: STANDARD PLATE); “inactive; negative” (Test System: AMES SALMONELLA TYPHIMURIUM, Strain/Indicator: TA98, Metabolic Activation: RAT, LIVER, S-9, AROCLOR 1254, Method: STANDARD PLATE); “inactive; negative” (Test System: AMES SALMONELLA TYPHIMURIUM, Strain/Indicator: TA100, Metabolic Activation: NONE, Method: STANDARD PLATE); “inactive; negative” (Test System: AMES SALMONELLA TYPHIMURIUM, Strain/Indicator: TA102, Metabolic Activation: NONE, Method: STANDARD PLATE). Also, under “Test System: AMES SALMONELLA TYPHIMURIUM, Strain/Indicator: TA102, Metabolic Activation: RAT, LIVER, S-9, AROCLOR 1254, Method: STANDARD PLATE”, the mutagenic call is “inactive; negative”.
